Assay [1] deals with T1, cathepsin D (from human liver) (Homo sapiens, UniProt P07339).
T1 construct: cathepsin D (from human liver, Calbiochem) diluted in assay buffer; purchased Calbiochem; host or cells: human liver
The assay is described as follows: Cathepsin D fluorescent substrate kinetic assay. The assay is classed as biochemical. To be noted: pH 5.5, substrate WTSVLMAAPC-MR121. The text has this: Cathepsin D and Cathepsin E Fluorescent Substrate Kinetic Assays
The MR121 fluorescence assays described below are based on the fact that MR121 forms a non-fluorescent ground state complex with tryptophan. In solution this formation occurs at millimolar concentrations of tryptophan. The mechanism can be used to design a generic biochemical assay for proteases. A substrate peptide is labeled at the N-terminus with tryptophan and at the C-terminus with the fluorophore MR121 (for cathepsin D the 10 amino acid peptide WTSVLMAAPC-MR121 was used; for cathepsin E, MR121-CKLVFFAEDW was used). In absence of protease activity, the substrates remain intact and the MR121 fluorescence is reduced by the high local Trp-concentration. If the substrates are cleaved by the enzymes the MR121 fluorescence is recovered.
The fluorescent substrate cathepsin D and cathepsin E kinetic assays were performed at room temperature in 384-well microtiter plates (black with clear flat bottom, non-binding surface plates from Corning) in a final volume of 51 μl. The test compounds were serially diluted in DMSO (15 concentrations, ⅓ dilution steps) and 1 μl of diluted compounds were mixed for 10 min with 40 μl of cathepsin D (from human liver, Calbiochem) diluted in assay buffer (100 mM sodium acetate, 0.05% BSA, pH 5.5; final concentration:200 nM) or with 40 μl of recombinant human cathepsin E (R&D Systems) diluted in assay buffer (100 mM sodium acetate, 0.05% BSA, pH 4.5; final concentration:0.01 nM). After addition of 10 μl of the cathepsin D substrate WTSVLMAAPC-MR121 diluted in cathepsin D assay buffer (final concentration:300 nM) or 10 μl of the cathepsin E substrate MR121-CKLVFFAEDW diluted in cathepsin E assay buffer (final concentration:300 nM), the plates were strongly shaken for 2 minutes. The enzymatic reaction was followed in a plate: vision reader (Perkin Elmer) (excitation wavelength:630 nm; emission:695 nm) for at least 30 minutes in a kinetic measurement detecting an increase of MR121 fluorescence during the reaction time. The slope in the linear range of the kinetic was calculated and the IC50 of the test compounds were determined using a four parameter equation for curve fitting.

The target of the next assay is T2, BACE1 (Homo sapiens, UniProt P56817).
T2 construct: endogenous in cells; host or cells: HEK293 APP cells
The assay is described as follows: Cellular Aβ-lowering assay (Abeta 40 AlphaLISA, HEK293 APP cells). The assay is classed as cell-based. To be noted: 18-20 hrs incubation, Aβ 40 in culture supernatant, read-out: BACE1 cell act. Aβ40 IC50. The essentials: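 HEK293 APP cells were treated with compound for 18-20 hrs at 37° C in 1% DMSO. Secreted Aβ40 in the supernatant was measured by AlphaLISA at 615 nm. Values are % of the DMSO-only signal, fit to give IC50.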

Another assay has as its target T3, CYP3A4 (Homo sapiens, UniProt P08684).
T3 construct: 0.2 mg/ml pooled human liver microsomes; from tissue; host or cells: pooled human liver microsomes
The assay is described as follows: CYP inhibition assay, human liver microsomes. The assay is classed as in vitro ADME. To be noted: human liver microsomes, substrate midazolam; read-out: CYP IC50 3A4. The method, then:
(§1) Inhibition of cytochromes P450 (CYPs) 2C9, 2D6 and 3A4 was assessed using human liver microsomes and CYP-selective substrate metabolism reactions. 50 μl incubations were made up containing (finally) 0.2 mg/ml pooled human liver microsomes, 5 μM substrate (diclofenac for CYP2C9 [4′hydroxylase], dextromethorphan for CYP2D6 [O-demethylase] or midazolam for CYP3A4 [1′hydroxylase]), 0.25 μL DMSO containing test inhibitor and NADPH regenerating system. Test inhibitor concentrations of 50, 16.7, 5.6, 1.9, 0.6 and 0.2 μM were assessed in singlicate. Incubations were prewarmed to 37° C. for 10 minutes before initiation by addition of NADPH regenerating system. Incubations were quenched after 5 minutes (20 minutes for dextromethorphan) by addition of 50 μl cold acetonitrile containing 20 ng/ml 4-OH-diclofenac-13C6, 20 ng/mL dextrorphan-D3 and 20 ng/mL 1-OH-midazolam-D4. Quenched incubates were stored at −20° C. for at least 1 hour before centrifugation (20,000× g, 20 minutes). Supernatants were removed and diluted 1:1 with water prior to analysis using a RapidFire sample injector system and API4000 mass spectrometer. Peak areas for substrate, metabolite and stable-labelled metabolite standard were determined using MS/MS. The peak area ratios between the metabolite generated by the enzymatic reaction and the internal standard were used in subsequent calculations. The percentage of (DMSO) control activity was calculated for each incubate and IC50 values estimated by non-linear regression. Sulfaphenazole, quinidine or ketoconazole were tested in each CYP2C9, CYP2D6 or CYP3A4 inhibition experiment, respectively, to ensure assay sensitivity and reproducibility. (Validated assays for human cytochrome P450 activities, R. L. Walsky and R. S. Obach, Drug Metabolism and Disposition 32: 647-660, 2004. and S. Fowler and H. Zhang, The AAPS Journal, Vol. 10, No. 2, 410-424, 2008)

The target of the next assay is T4, CYP2C9 (Homo sapiens, UniProt P11712).
T4 construct: 0.2 mg/ml pooled human liver microsomes; from tissue; host or cells: pooled human liver microsomes
Kind of assay: CYP inhibition assay, human liver microsomes. To be noted: human liver microsomes, substrate diclofenac; read-out: CYP IC50 2C9. The assay is classed as in vitro ADME. Here is the method:
as §1
(Liver microsomes are vesicles of endoplasmic reticulum, rich in cytochrome P450 enzymes.)

For the next assay, the target named is T5, CYP2D6 (Homo sapiens, UniProt P10635).
T5 construct: 0.2 mg/ml pooled human liver microsomes; from tissue; host or cells: pooled human liver microsomes
The assay is described as follows: CYP inhibition assay, human liver microsomes. The assay is classed as in vitro ADME. To be noted: human liver microsomes, substrate dextromethorphan; read-out: CYP IC50 2D6. The method, then: as §1

T1 sequence (P07339 65-162 limits assumed): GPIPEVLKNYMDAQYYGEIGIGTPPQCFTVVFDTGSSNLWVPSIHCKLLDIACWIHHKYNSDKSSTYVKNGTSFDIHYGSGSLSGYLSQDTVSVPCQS
T1 sequence (P07339 169-412 limits assumed): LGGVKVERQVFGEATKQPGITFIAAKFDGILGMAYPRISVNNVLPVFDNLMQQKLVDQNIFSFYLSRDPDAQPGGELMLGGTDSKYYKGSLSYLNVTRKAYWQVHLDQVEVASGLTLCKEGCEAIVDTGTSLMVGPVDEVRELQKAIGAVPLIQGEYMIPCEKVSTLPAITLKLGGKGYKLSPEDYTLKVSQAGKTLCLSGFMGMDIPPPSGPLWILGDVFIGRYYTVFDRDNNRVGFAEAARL
T5 sequence (P10635 whole entry): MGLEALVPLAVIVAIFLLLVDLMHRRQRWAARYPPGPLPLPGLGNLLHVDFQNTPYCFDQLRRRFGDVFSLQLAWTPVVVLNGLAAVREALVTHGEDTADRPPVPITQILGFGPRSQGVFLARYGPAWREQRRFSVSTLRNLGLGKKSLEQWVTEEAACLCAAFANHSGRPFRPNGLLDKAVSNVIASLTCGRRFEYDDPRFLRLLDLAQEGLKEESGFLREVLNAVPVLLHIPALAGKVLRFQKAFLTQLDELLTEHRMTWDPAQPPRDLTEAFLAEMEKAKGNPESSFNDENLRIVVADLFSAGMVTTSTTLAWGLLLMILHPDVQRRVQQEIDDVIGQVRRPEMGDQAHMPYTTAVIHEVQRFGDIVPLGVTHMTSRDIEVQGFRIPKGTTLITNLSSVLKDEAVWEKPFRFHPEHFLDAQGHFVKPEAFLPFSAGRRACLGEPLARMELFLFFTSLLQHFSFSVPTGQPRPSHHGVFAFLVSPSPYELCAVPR
T3 sequence (P08684 whole entry): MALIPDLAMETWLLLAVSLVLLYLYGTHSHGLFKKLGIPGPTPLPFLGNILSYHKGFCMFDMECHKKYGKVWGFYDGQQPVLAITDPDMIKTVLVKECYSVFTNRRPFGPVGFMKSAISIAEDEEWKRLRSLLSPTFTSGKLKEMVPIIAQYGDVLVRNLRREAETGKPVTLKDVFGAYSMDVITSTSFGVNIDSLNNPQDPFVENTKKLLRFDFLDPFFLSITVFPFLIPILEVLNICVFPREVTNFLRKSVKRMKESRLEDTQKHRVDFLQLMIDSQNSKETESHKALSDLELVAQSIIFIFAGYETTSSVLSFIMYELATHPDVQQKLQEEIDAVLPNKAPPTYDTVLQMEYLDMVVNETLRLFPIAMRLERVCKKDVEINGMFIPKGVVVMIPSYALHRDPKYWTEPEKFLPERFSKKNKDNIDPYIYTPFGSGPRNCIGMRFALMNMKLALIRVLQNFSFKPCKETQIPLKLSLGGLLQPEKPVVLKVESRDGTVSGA
T2 sequence (P56817 46-501): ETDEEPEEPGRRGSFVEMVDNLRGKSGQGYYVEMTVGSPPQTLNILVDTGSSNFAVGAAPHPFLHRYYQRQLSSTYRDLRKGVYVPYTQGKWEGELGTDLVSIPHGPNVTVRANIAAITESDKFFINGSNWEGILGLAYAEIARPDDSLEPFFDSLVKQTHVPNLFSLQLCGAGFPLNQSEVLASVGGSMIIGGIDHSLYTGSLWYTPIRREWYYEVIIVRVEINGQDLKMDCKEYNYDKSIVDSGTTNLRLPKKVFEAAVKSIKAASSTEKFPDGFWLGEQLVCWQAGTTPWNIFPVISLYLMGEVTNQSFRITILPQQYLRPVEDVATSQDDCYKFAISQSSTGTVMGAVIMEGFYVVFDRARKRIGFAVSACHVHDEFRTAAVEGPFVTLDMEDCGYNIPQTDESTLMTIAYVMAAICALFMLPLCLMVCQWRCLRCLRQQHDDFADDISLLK
T4 sequence (P11712 whole entry): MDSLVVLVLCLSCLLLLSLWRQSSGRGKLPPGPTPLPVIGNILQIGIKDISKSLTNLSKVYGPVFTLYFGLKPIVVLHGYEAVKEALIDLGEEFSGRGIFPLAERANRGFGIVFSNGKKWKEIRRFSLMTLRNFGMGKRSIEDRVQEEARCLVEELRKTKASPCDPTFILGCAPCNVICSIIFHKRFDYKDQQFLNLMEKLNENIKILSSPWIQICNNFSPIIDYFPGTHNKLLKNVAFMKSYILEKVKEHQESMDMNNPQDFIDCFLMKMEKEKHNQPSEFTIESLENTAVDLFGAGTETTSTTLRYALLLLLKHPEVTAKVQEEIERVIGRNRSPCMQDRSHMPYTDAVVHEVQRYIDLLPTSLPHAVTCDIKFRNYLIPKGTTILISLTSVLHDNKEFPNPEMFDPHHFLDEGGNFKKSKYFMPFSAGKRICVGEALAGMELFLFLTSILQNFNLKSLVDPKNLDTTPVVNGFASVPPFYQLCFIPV

As for `CN=[S@@]1(=O)C[C@@](C)(c2cc(-c3cc(-c4cnc(OCC(F)F)cn4)no3)ccc2F)N=C(N)C1(C)C` [Example 5, (1R,3R)-5-amino-3-(5-(3-(5-(2,2-difluoroethoxy)pyrazin-2-yl)isoxazol-5-yl)-2-fluorophenyl)-3,6,6-trimethyl-1-(methylimino)-3,6-dihydro-2H-1,4-thiazine 1-oxide 2,2,2-trifluoroacetate], the half-inhibitory concentration (IC50) – broadly, the midpoint of a concentration-inhibition curve – in assay [1] is 29 µM; on BACE1, 0.013 µM; on CYP3A4 it was greater than 10 µM; on CYP2C9, greater than 10 µM.

Take `CN=[S@@]1(=O)C[C@@](C)(c2cc(-c3cc(-c4ncc(Cl)cn4)no3)ccc2F)N=C(N)C1(C)C` [Example 6, (1R,3R)-5-amino-3-(5-(3-(5-chloropyrimidin-2-yl)isoxazol-5-yl)-2-fluorophenyl)-3,6,6-trimethyl-1-(methylimino)-3,6-dihydro-2H-1,4-thiazine 1-oxide 2,2,2-trifluoroacetate]: the 50% inhibitory concentration (IC50) was 38 µM in assay [1]; 0.006 µM at BACE1; greater than 10 µM at CYP2D6; greater than 10 µM on CYP3A4; greater than 10 µM at CYP2C9.

With `CN=[S@@]1(=O)C[C@@](C)(c2cc(-c3cc(-c4cnc(OC)cn4)no3)ccc2F)N=C(N)C1(C)C` [Example 7, (1R,3R)-5-amino-3-(2-fluoro-5-(3-(5-methoxypyrazin-2-yl)isoxazol-5-yl)phenyl)-3,6,6-trimethyl-1-(methylimino)-3,6-dihydro-2H-1,4-thiazine 1-oxide 2,2,2-trifluoroacetate], the 50% inhibitory concentration (IC50) in assay [1] is 37 µM; at BACE1, 0.056 µM; at CYP2D6 it was greater than 10 µM; at CYP3A4, greater than 10 µM; at CYP2C9, greater than 10 µM.

`[2H]C([2H])([2H])N=[S@@]1(=O)C[C@@](C)(c2cc(-c3cc(-c4cnc(OC)cn4)no3)ccc2F)N=C(N)C1(C)C` [Example 24, (1R,3R)-3-[2-fluoro-5-[3-(5-methoxypyrazin-2-yl)isoxazol-5-yl]phenyl]-3,6,6-rimethyl-1-oxo-1-(trideuteriomethylimino)-2H-1,4-thiazin-5-amine 2,2,2-trifluoroacetate]: the IC50 in assay [1] was 39 µM; on BACE1 it was 0.05 µM; on CYP2D6, greater than 10 µM; on CYP3A4, greater than 10 µM; at CYP2C9, greater than 10 µM.

(Values after patent US10047081B2, “BACE1 inhibitors” (Hoffmann-La Roche Inc., priority 2015, dated 2018).)
